Source: patent publication US12599136B2, “Substituted isophthalic acid diamides and their use as herbicides” (Bayer Aktiengesellschaft, priority 2020, dated 2026)

How the values were obtained:
Assay type in all cases: in vivo
Viola tricolor [1] = test: Post-emergence herbicidal action against VIOTR
In short: (§1)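 Sandy loam, greenhouse; treatment 2–3 weeks after sowing, one-leaf stage. Aqueous suspension or emulsion from WP/EC sprayed on foliage (600–800 l/ha, 0.2% wetting agent). Readout: visual % action, ~3 weeks.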

Lolium rigidum = test: Pre-emergence herbicidal action against LOLRI
In short: (§2)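 Seeds sown in sandy loam, soil-covered; compound sprayed on soil surface pre-emergence. Application: WP/EC, 600–800 l/ha, 0.2% wetting agent. Readout: visual % damage at 3 weeks.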

Stellaria media [2] = test: Pre-emergence herbicidal action against STEME
From the text: (§3) Seeds of monocotyledonous and dicotyledonous weed plants and crop plants are laid out in sandy loam soil in wood-fiber pots and covered with soil. The compounds of the invention, formulated in the form of wettable powders (WP) or as emulsion concentrates (EC), are then applied to the surface of the covering soil in the form of an aqueous suspension or emulsion at a water application rate equivalent to 600 to 800 l/ha, with addition of 0.2% wetting agent. After the treatment, the pots are placed in a greenhouse and kept under good growth conditions for the trial plants. The damage to the test plants is scored visually after a test period of 3 weeks by comparison with untreated controls (herbicidal activity in percent (%): 100% activity=the plants have died, 0% activity=like control plants). […] The tables below illustrate, in an illustrative manner, the post-emergence herbicidal action of the compounds of the invention, the herbicidal activity being stated in percent.

Polygonum convolvulus = test: Pre-emergence herbicidal action against POLCO; details: 320 g/ha
In short: as §2

Veronica persica [3] = test: Post-emergence herbicidal action against VERPE; details: visual assessment about 3 weeks after treatment
In short: as §1

Alopecurus myosuroides [4] = test: Pre-emergence herbicidal action against ALOMY; details: visual score after 3 weeks vs untreated controls
In short: as §2

Stellaria media [5] = test: Post-emergence herbicidal action against STEME; details: visual assessment about 3 weeks after treatment
Method: (§4) Seeds of monocotyledonous and dicotyledonous weed and crop plants are laid out in sandy loam soil in wood-fiber pots, covered with soil and cultivated in a greenhouse under good growth conditions. 2 to 3 weeks after sowing, the test plants are treated at the one-leaf stage. The compounds of the invention, formulated in the form of wettable powders (WP) or as emulsion concentrates (EC), are then sprayed onto the green parts of the plants in the form of an aqueous suspension or emulsion at a water application rate equivalent to 600 to 800 l/ha, with addition of 0.2% wetting agent. After the test plants have been left to stand in the greenhouse under optimal growth conditions for about 3 weeks, the action of the preparations is assessed visually in comparison to untreated controls (herbicidal action in percent (%): 100% activity=the plants have died, 0% activity=like control plants). […] The tables below illustrate, in an illustrative manner, the post-emergence herbicidal action of the compounds of the invention, the herbicidal activity being stated in percent.

Veronica persica [6] = test: Pre-emergence herbicidal action against VERPE; details: 320 g/ha
In short: as §2

Setaria viridis [7] = test: Pre-emergence herbicidal action against SETVI
In short: as §2

Setaria viridis [8] = test: Post-emergence herbicidal action against SETVI; details: visual assessment about 3 weeks after treatment
In short: as §1

Abutilon theophrasti [9] = test: Post-emergence herbicidal action against ABUTH
In short: as §1

Cyperus esculentus = test: Pre-emergence herbicidal action against CYPES; details: visual score after 3 weeks vs untreated controls
From the text: as §3

Pharbitis purpurea [10] = test: Post-emergence herbicidal action against PHBPU; details: visual assessment about 3 weeks after treatment
In short: as §1

Amaranthus retroflexus [11] = test: Pre-emergence herbicidal action against AMARE; details: visual score after 3 weeks vs untreated controls
In short: as §2

Viola tricolor [12] = test: Pre-emergence herbicidal action against VIOTR
In short: as §2

Avena fatua [13] = test: Post-emergence herbicidal action against AVEFA; details: 80 g/ha, visual assessment about 3 weeks after treatment
In short: as §1

Echinochloa crus-galli [14] = test: Pre-emergence herbicidal action against ECHCG; details: visual score after 3 weeks vs untreated controls
In short: as §2

Avena fatua [15] = test: Pre-emergence herbicidal action against AVEFA; details: visual score after 3 weeks vs untreated controls
In short: as §2

Matricaria inodora [16] = test: Pre-emergence herbicidal action against MATIN; details: visual score after 3 weeks vs untreated controls
In short: as §2

Alopecurus myosuroides [17] = test: Post-emergence herbicidal action against ALOMY
In short: as §1

Amaranthus retroflexus [18] = test: Post-emergence herbicidal action against AMARE; details: visual assessment about 3 weeks after treatment
In short: as §1

Echinochloa crus-galli [19] = test: Post-emergence herbicidal action against ECHCG; details: visual assessment about 3 weeks after treatment
In short: as §1

Hordeum murinum [20] = test: Pre-emergence herbicidal action against HORMU; details: 320 g/ha; visual score after 3 weeks vs untreated controls
From the text: as §3

Matricaria inodora [21] = test: Post-emergence herbicidal action against MATIN; details: visual assessment about 3 weeks after treatment
In short: as §1

Hordeum murinum [22] = test: Post-emergence herbicidal action against HORMU; details: 80 g/ha
Method: as §4

Abutilon theophrasti [23] = test: Pre-emergence herbicidal action against ABUTH; details: visual score after 3 weeks vs untreated controls
In short: as §2

Pharbitis purpurea [24] = test: Pre-emergence herbicidal action against PHBPU; details: 80 g/ha; visual score after 3 weeks vs untreated controls
From the text: as §3

CN(C(=O)c1c(Cl)ccc(C(=O)Nc2nnnn2C)c1Cl)c1ccccc1 [Example 1-398]
Post-emergence action against VIOTR in % (Viola tricolor [1]; 80 g/ha): 90%
Pre-emergence action against LOLRI (Lolium rigidum; 320 g/ha): 90%
Pre-emergence action against STEME (Stellaria media [2]; 20 g/ha): 90%
Pre-emergence action against STEME (Stellaria media [2]; 80 g/ha): 100%
Pre-emergence action against STEME (Stellaria media [2]; 320 g/ha): 100%
Pre-emergence action against POLCO (Polygonum convolvulus): 100%
Post-emergence action against VERPE in % (Veronica persica [3]; 20 g/ha): 80%
Post-emergence action against VERPE in % (Veronica persica [3]; 80 g/ha): 90%
Pre-emergence action against ALOMY (Alopecurus myosuroides [4]; 20 g/ha): 80%
Pre-emergence action against ALOMY (Alopecurus myosuroides [4]; 80 g/ha): 100%
Pre-emergence action against ALOMY (Alopecurus myosuroides [4]; 320 g/ha): 100%
Post-emergence action against STEME in % (Stellaria media [5]; 5 g/ha): 80%
Post-emergence action against STEME in % (Stellaria media [5]; 20 g/ha): 90%
Post-emergence action against STEME in % (Stellaria media [5]; 80 g/ha): 100%
Pre-emergence action against VERPE (Veronica persica [6]): 100%
Pre-emergence action against SETVI (Setaria viridis [7]; 80 g/ha): 100%
Pre-emergence action against SETVI (Setaria viridis [7]; 320 g/ha): 100%
Post-emergence action against SETVI in % (Setaria viridis [8]; 80 g/ha): 100%
Post-emergence action against ABUTH (Abutilon theophrasti [9]; 20 g/ha): 100%
Post-emergence action against ABUTH (Abutilon theophrasti [9]; 80 g/ha): 100%
Pre-emergence action against CYPES (Cyperus esculentus; 80 g/ha): 80%
Pre-emergence action against CYPES (Cyperus esculentus; 320 g/ha): 90%
Post-emergence action against PHBPU in % (Pharbitis purpurea [10]; 20 g/ha): 80%
Post-emergence action against PHBPU in % (Pharbitis purpurea [10]; 80 g/ha): 80%
Pre-emergence action against AMARE (Amaranthus retroflexus [11]; 20 g/ha): 90%
Pre-emergence action against AMARE (Amaranthus retroflexus [11]; 80 g/ha): 100%
Pre-emergence action against AMARE (Amaranthus retroflexus [11]; 320 g/ha): 100%
Pre-emergence action against VIOTR (Viola tricolor [12]; 80 g/ha): 80%
Pre-emergence action against VIOTR (Viola tricolor [12]; 320 g/ha): 100%
Post-emergence action against AVEFA in % (Avena fatua [13]): 80%
Pre-emergence action against ECHCG (Echinochloa crus-galli [14]; 80 g/ha): 80%
Pre-emergence action against ECHCG (Echinochloa crus-galli [14]; 320 g/ha): 100%
Pre-emergence action against AVEFA (Avena fatua [15]; 80 g/ha): 80%
Pre-emergence action against AVEFA (Avena fatua [15]; 320 g/ha): 90%
Pre-emergence action against MATIN (Matricaria inodora [16]; 20 g/ha): 90%
Pre-emergence action against MATIN (Matricaria inodora [16]; 80 g/ha): 100%
Pre-emergence action against MATIN (Matricaria inodora [16]; 320 g/ha): 100%
Post-emergence action against ALOMY (Alopecurus myosuroides [17]; 80 g/ha): 100%
Post-emergence action against AMARE in % (Amaranthus retroflexus [18]; 5 g/ha): 80%
Post-emergence action against AMARE in % (Amaranthus retroflexus [18]; 20 g/ha): 100%
Post-emergence action against AMARE in % (Amaranthus retroflexus [18]; 80 g/ha): 100%
Post-emergence action against ECHCG in % (Echinochloa crus-galli [19]; 20 g/ha): 100%
Post-emergence action against ECHCG in % (Echinochloa crus-galli [19]; 80 g/ha): 100%
Pre-emergence action against HORMU (Hordeum murinum [20]): 100%
Post-emergence action against MATIN in % (Matricaria inodora [21]; 80 g/ha): 90%
Post-emergence action against HORMU in % (Hordeum murinum [22]): 80%
Pre-emergence action against ABUTH (Abutilon theophrasti [23]; 20 g/ha): 100%
Pre-emergence action against ABUTH (Abutilon theophrasti [23]; 80 g/ha): 100%
Pre-emergence action against ABUTH (Abutilon theophrasti [23]; Dosage column 320 g/ha (heading prints 3200 g/ha)): 100%

CCN(C(=O)c1c(C(F)F)ccc(C(=O)Nc2nnnn2C)c1Cl)C1CC1 [Example 1-167]
Post-emergence action against VIOTR in % (Viola tricolor [1]; 5 g/ha): 80%
Post-emergence action against VIOTR in % (Viola tricolor [1]; 20 g/ha): 90%
Pre-emergence action against LOLRI (Lolium rigidum; 80 g/ha): 90%
Post-emergence action against VERPE in % (Veronica persica [3]; 20 g/ha): 90%
Pre-emergence action against ALOMY (Alopecurus myosuroides [4]; 80 g/ha): 100%
Pre-emergence action against SETVI (Setaria viridis [7]; 80 g/ha): 100%
Post-emergence action against SETVI in % (Setaria viridis [8]; 20 g/ha): 100%
Post-emergence action against ABUTH (Abutilon theophrasti [9]; 5 g/ha): 90%
Post-emergence action against ABUTH (Abutilon theophrasti [9]; 20 g/ha): 90%
Pre-emergence action against AMARE (Amaranthus retroflexus [11]; 20 g/ha): 100%
Pre-emergence action against AMARE (Amaranthus retroflexus [11]; 80 g/ha): 100%
Pre-emergence action against VIOTR (Viola tricolor [12]; 20 g/ha): 90%
Pre-emergence action against VIOTR (Viola tricolor [12]; 80 g/ha): 100%
Pre-emergence action against PHBPU (Pharbitis purpurea [24]): 80%
Pre-emergence action against ECHCG (Echinochloa crus-galli [14]; 80 g/ha): 90%
Pre-emergence action against AVEFA (Avena fatua [15]; 80 g/ha): 90%
Pre-emergence action against MATIN (Matricaria inodora [16]; 20 g/ha): 80%
Pre-emergence action against MATIN (Matricaria inodora [16]; 80 g/ha): 100%
Post-emergence action against ALOMY (Alopecurus myosuroides [17]; 5 g/ha): 90%
Post-emergence action against ALOMY (Alopecurus myosuroides [17]; 20 g/ha): 90%
Post-emergence action against AMARE in % (Amaranthus retroflexus [18]; 5 g/ha): 100%
Post-emergence action against AMARE in % (Amaranthus retroflexus [18]; 20 g/ha): 100%
Post-emergence action against ECHCG in % (Echinochloa crus-galli [19]; 20 g/ha): 80%
Post-emergence action against MATIN in % (Matricaria inodora [21]; 20 g/ha): 80%
Pre-emergence action against ABUTH (Abutilon theophrasti [23]; 20 g/ha): 100%
Pre-emergence action against ABUTH (Abutilon theophrasti [23]; 80 g/ha): 100%
